Measured values as given in patent publication US20240287052A1, “NOVEL OXAZOLE DERIVATIVE AND PHARMACEUTICAL COMPOSITION FOR PREVENTING OR TREATING ALLERGIC DISEASES COMPRISING THE SAME” (AZCURIS CO., LTD., priority 2021, published 2024).

Columns and labels:
[1] = system: IL-6 secretion in the human mast cell line HMC 1.1; experiment: IL-6 production inhibition assay (IL-33 stimulated HMC 1.1 cells, IL-6 ELISA); type: cell-based; conditions: for inhibition at 1 µM: 1 μM compound, read-out: Inhibition of hIL-6 production (%) 1 μM; for inhibition at 10 µM: 10 μM compound, read-out: Inhibition of hIL-6 production (%) 10 μM
Experimental: Human mast cell line HMC 1.1 cells were cultured in medium (Iscove's Modified Dulbecco's Medium, IMDM, HyClone) supplemented with […] fetal bovine serum (FBS, HyClone) and 1% antibiotics and maintained at 37° C. with 5% CO2.
HMC 1.1 cells, which are non-adherent cells, were cultured in 0.5 mL of culture medium containing 200 nM of IL-33 wild type human recombinant protein after centrifugation of cells in culture flasks filled to […] capacity and incubated for 24 hours with […], 10 μM, 25 μM, 30 μM or 50 μM of Example compound.
Medium was harvested by centrifugation (2,000×g, 5 min) and stored at −80° C. until ELISA assay.
Experiments were performed according to the protocol using the Human IL-6 ELISA kit (abCam).
The average of the three values obtained in triplicate was calculated and the amount of IL-6 secretion was measured using a standard curve. The measured IL-6 secretion was converted to 100% based on the vehicle treatment sample value to obtain the vehicle %.

[2] = molecular target: T1, IL33 and ST2 binding (Homo sapiens, UniProt O95760); conditions: 30 µM;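 also: plate ELISA with coated Flag-tagged human IL-33 and His-tagged human ST2, bound ST2 detected by anti-His HRP and TMB absorbance at 450 nm, 2 h compound incubation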
T1 sequence (O95760 112-270 limits assumed): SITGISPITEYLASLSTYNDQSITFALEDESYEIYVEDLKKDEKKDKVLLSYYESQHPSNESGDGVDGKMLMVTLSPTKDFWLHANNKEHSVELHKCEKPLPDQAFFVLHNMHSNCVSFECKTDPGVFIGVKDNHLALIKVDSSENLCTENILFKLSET
Experimental: 100 nM of Flag tagged IL-33 human recombinant protein was prepared in 1× coating buffer (Biolegend) and placed in a 96 well microplate (Coming) using a Multichannel pipette (Gilson) and coated for at least 12 hours at 4° C.
After washing three times with PBST (1×PBS (Welgene), 1% Tween 20 (sigma)), it was reacted with 1% BSA (Bovogen) blocking buffer for 1 hour at room temperature.
Samples containing 200 nM of His-tagged ST2 human recombinant protein and 60 μM or 200 μM Example synthetic compounds were prepared, added in equal volumes, and reacted for at least 2 hours at room temperature.
After washing three times with PBST (1×PBS (Welgene), 1% Tween 20 (sigma)), anti-His HRP (BioLegend) antibody was diluted 5000:1 and reacted for at least 1 hour at room temperature.
After washing three times with PBST (1×PBS (Welgene), 1% Tween 20 (sigma)), TMB substrate solution (Thermo) was added and reacted for more than 5 minutes. The reaction was stopped by adding 1 N HCl (Samchun) and the absorbance value was obtained at 450 nm after orbital shaking for 5 s with a Microplate reader (Tecan, Spark®).
The results derived from the program linked to the microplate reader were analyzed using an Excel program. IL33-ST2 binding rate (binding %) was calculated by averaging the three values obtained in triplicate, subtracting the positive control value, and converting the negative control value to 100%. The inhibition % value of each compound was obtained by subtracting the IL33-ST2 binding % from 100%, and the error range of triplicate was also obtained and reflected in the inhibition graph of the compound.

SMILES	inhibition [2]	EC50 ([1]; read-out: Inhibition of hIL-6 production EC50)	inhibition at 1 µM ([1]; 24 hours)	inhibition at 10 µM ([1]; 24 hours)	inhibition at 0.1 µM ([1]; 0.1 μM compound, 24 hours, read-out: Inhibition of hIL-6 production (%) 0.1 μM)
CCNC(=O)c1nc(-c2ccc(C(F)(F)F)cc2)oc1-c1cc(OC)cc(OC)c1 [Compound 303, 5-(3,5-Dimethoxyphenyl)-N-ethyl-2-(4-(trifluoromethyl)phenyl)oxazole-4-carboxamide]			26%	26%	
CCCNC(=O)c1nc(-c2ccc(C(F)(F)F)cc2)oc1-c1cccc(OC)c1 [Compound 299, 5-(3-Methoxyphenyl)-N-propyl-2-(4-(Trifluoromethyl)phenyl)oxazole-4-carboxamide]			40%	57%	
CCOC(=O)c1nc(-c2ccc(C(F)(F)F)cc2)oc1-c1cc(OC)c(OC)c(OC)c1 [Compound 49, Ethyl 2-(4-(trifluoromethyl)phenyl)-5-(3,4,5-trimethoxyphenyl)oxazole-4-carboxylate]	-65%		-2%	16%	
CCNC(=O)c1nc(-c2ccc(C(F)(F)F)cc2)oc1-c1cc(OC)c(OC)c(OC)c1 [Compound 304, N-Ethyl-2-(4-(trifluoromethyl)phenyl)-5-(3,4,5-trimethoxyphenyl)oxazole-4-carboxamide]			-47%	-74%	
CCNC(=O)c1nc(-c2ccc(C(F)(F)F)cc2)oc1-c1ccc(OC)cc1 [Compound 300, N-Ethyl-5-(4-methoxyphenyl)-2-(4-(trifluoromethyl)phenyl)oxazole-4-carboxamide]			37%	47%	
CCCNC(=O)c1nc(-c2ccc(C(F)(F)F)cc2)oc1-c1ccccc1OC [Compound 297, 5-(2-Methoxyphenyl)-N-propyl-2-(4-(trifluoromethyl)phenyl)oxazole-4-carboxamide]			3%	34%	
CCCNC(=O)c1nc(-c2ccc(C(F)(F)F)cc2)oc1-c1ccc(OC)cc1 [Compound 301, 5-(4-Methoxyphenyl)-N-propyl-2-(4-(Trifluoromethyl)phenyl)oxazole-4-carboxamide]			21%	31%	
CCCNC(=O)c1nc(-c2ccc(C(F)(F)F)cc2)oc1-c1ccccc1 [Compound 295, 5-Phenyl-N-propyl-2-(4-(trifluoromethyl)phenyl)oxazole-4-carboxamide]			53%	57%	
CCCNC(=O)c1nc(-c2ccc(C(F)(F)F)cc2)oc1-c1cccc(O)c1 [Compound 319, 5-(3-Hydroxyphenyl)-N-propyl-2-(4-(trifluoromethyl)phenyl)oxazole-4-carboxamide]			75%	80%	
CCNC(=O)c1nc(-c2ccc(C(F)(F)F)cc2)oc1-c1ccccc1OC [Compound 296, N-Ethyl-5-(2-methoxyphenyl)-2-(4-(trifluoromethyl)phenyl)oxazole-4-carboxamide]			0%	32%	
CCNC(=O)c1nc(-c2ccc(C(F)(F)F)cc2)oc1-c1ccc(O)c(O)c1 [Compound 321, 5-(3,4-Dihydroxyphenyl)-N-ethyl-2-(4-(trifluoromethyl)phenyl)oxazole-4-carboxamide]			50%	72%	
CCNC(=O)c1nc(-c2ccc(C(F)(F)F)cc2)oc1-c1ccncc1 [Compound 309, N-Ethyl-5-(pyridin-4-yl)-2-(4-(trifluoromethyl)phenyl)oxazole-4-carboxamide]			56%	51%	
CCNC(=O)c1nc(-c2ccc(C(F)(F)F)cc2)oc1-c1ccc(OC)c(OC)c1 [Compound 302, 5-(3,4-dimethoxyphenyl)-N-ethyl-2-(4-(Trifluoromethyl)phenyl)oxazole-4-carboxamide]			-34%	-29%	
CCCNC(=O)c1nc(-c2ccc(C(F)(F)F)cc2)oc1-c1ccncc1 [Compound 310, N-Propyl-5-(pyridin-4-yl)-2-(4-(trifluoromethyl)phenyl)oxazole-4-carboxamide]			49%	58%	
CCNC(=O)c1nc(-c2ccc(C(F)(F)F)cc2)oc1-c1cccc(O)c1 [Compound 318, N-Ethyl-5-(3-hydroxyphenyl)-2-(4-(trifluoromethyl)phenyl)oxazole-4-carboxamide]			70%	79%	

Continued, in another order:

inhibition [2]	EC50 ([1]; read-out: Inhibition of hIL-6 production EC50)	SMILES	inhibition at 1 µM ([1]; 24 hours)	inhibition at 10 µM ([1]; 24 hours)	inhibition at 0.1 µM ([1]; 0.1 μM compound, 24 hours, read-out: Inhibition of hIL-6 production (%) 0.1 μM)
87%		CCOC(=O)c1nc(-c2ccc(C(F)(F)F)cc2)oc1-c1cc(OC)cc(OC)c1 [Compound 48, Ethyl 5-(3,5-dimethoxyphenyl)-2-(4-(trifluoromethyl)phenyl)oxazole-4-carboxylate]	22%	39%	
5%		COc1cccc(-c2oc(-c3ccc(C(F)(F)F)cc3)nc2C(=O)NCCN2CCN(C(C)=O)CC2)c1 [Compound 198, N-(2-(4-acetylpiperazin-1-yl)ethyl)-5-(3-methoxyphenyl)-2-(4-(trifluoromethyl)phenyl)oxazole-4-carboxamide]	62%	77%	
-47%		CCNC(=O)c1nc(-c2ccc(OC)cc2)oc1-c1ccccc1 [Compound 312, N-Ethyl-2-(4-methoxyphenyl)-5-phenyloxazole-4-carboxamide]	66%	81%	
-28%		CC(=O)N1CCN(CCNC(=O)c2nc(-c3ccccc3C(F)(F)F)oc2-c2ccccc2)CC1 [Compound 128, N-(2-(4-acetylpiperazin-1-yl)ethyl)-5-phenyl-2-(2-(trifluoromethyl)phenyl)oxazole-4-carboxamide]	66%	80%	
-29%		CCNC(=O)c1nc(-c2cc(F)cc(F)c2)oc1-c1ccccc1 [Compound 313, 2-(3,5-Difluorophenyl)-N-ethyl-5-phenyloxazole-4-carboxamide]	-7%	27%	
99%		CC(=O)N1CCN(CCNC(=O)c2nc(-c3ccc(C(F)(F)F)cc3)oc2-c2cccnc2)CC1 [Compound 197, N-(2-(4-acetylpiperazin-1-yl)ethyl)-5-(pyridin-3-yl)-2-(4-(trifluoromethyl)phenyl)oxazole-4-carboxamide]	62%	70%	
-17%		CCNC(=O)c1nc(-c2ccc(C(F)(F)F)cc2)oc1-c1ccccc1OC(F)(F)F [Compound 305, N-Ethyl-5-(2-(trifluoromethoxy)phenyl)-2-(4-(trifluoromethyl)phenyl)oxazole-4-carboxamide]	-4%	26%	
38%		CCCNC(=O)c1nc(-c2ccc(C(F)(F)F)cc2)oc1-c1ccccc1OC(F)(F)F [Compound 306, N-Propyl-5-(2-(trifluoromethoxy)phenyl)-2-(4-(trifluoromethyl)phenyl)oxazole-4-carboxamide]	-38%	45%	
-4%		CCNC(=O)c1nc(-c2ccc(C#N)cc2)oc1-c1ccccc1 [Compound 315, 2-(4-cyanophenyl)-N-ethyl-5-phenyloxazole-4-carboxamide]	47%	61%	
-57%		CCOC(=O)c1nc(-c2ccc(C(F)(F)F)cc2)oc1-c1ccc(OC)c(OC)c1 [Compound 47, Ethyl 5-(3,4-dimethoxyphenyl)-2-(4-(trifluoromethyl)phenyl)oxazole-4-carboxylate]	36%	26%	
-5%		CCNC(=O)c1nc(-c2ccc(C(F)(F)F)cc2)oc1-c1cccc(C#N)c1 [Compound 311, 5-(3-Cyanophenyl)-N-ethyl-2-(4-(Trifluoromethyl)phenyl)oxazole-4-carboxamide]	64%	80%	
41%		CSc1ccc(-c2oc(-c3ccc(C(F)(F)F)cc3)nc2C(=O)NCCN2CCN(C(C)=O)CC2)cc1 [Compound 194, N-(2-(4-acetylpiperazin-1-yl)ethyl)-5-(4-(methylthio)phenyl)-2-(4-(trifluoromethyl)phenyl)oxazole-4-carboxamide]	44%	68%	
87%	640 nM	CCNC(=O)c1nc(-c2ccc(C(F)(F)F)cc2)oc1-c1cccc(OC)c1 [Compound 298, N-Ethyl-5-(3-methoxyphenyl)-2-(4-(trifluoromethyl)phenyl)oxazole-4-carboxamide]	70%	75%	12%
-18%		CCNC(=O)c1nc(-c2cccc(Cl)c2)oc1-c1ccccc1 [Compound 314, 2-(3-Chlorophenyl)-N-ethyl-5-phenyloxazole-4-carboxamide]	10%	81%	
